# Results taken from patent publication US20190314334A1, “COMPOUNDS FOR THE TREATMENT OF AUTOIMMUNE DISEASES” (QUIMATRYX, S.L., priority 2016, published 2019).
# How the values were obtained:
# [1] = system: Concanavalin A (ConA)-induced hepatitis; assay: Concanavalin A (ConA)-induced hepatitis model of autoimmune hepatitis, plasma transaminase (GPT); assay type: in vivo, Male Balb/C mice; details: blood 8 hours after ConA, vehicle 1338 U/L
# Method: Concanavalin A (ConA)-induced hepatitis is a cell-mediated immunoinflammatory condition that can be induced in mice by a single intravenous injection of ConA. It is typically employed as a model for autoimmune hepatitis. The disease is characterized by a marked increase in the plasma levels of transaminase (GPT) shortly (8-24 hours) after ConA challenge and simultaneous infiltration of the liver with neutrophils, macrophages and T cells followed by apoptosis and necrosis of the hepatocytes. The aim of the present example was to evaluate the effects of a compound of formula (I) (QTX125) on histological and clinical parameters in the model of autoimmune hepatitis induced by ConA. Male Balb/C mice 7-8 weeks old (Envigo, San Pietro al Natisone, Udine, Italy) were kept under standard laboratory conditions (non-specific pathogen free) with free access to food and water and were allowed to adapt at least one week to their environment before commencing the study. ConA (Sigma Chemical, St. Louis, Mo.), was dissolved in sterile phosphate-buffered saline (PBS) and was injected into the tail veins of the animals at the dose of 20 mg/Kg. Three groups of 10 mice were treated at −24 and −1 hours before ConA injection as described in the table below: [table] […] The depth of colour is itself determined by the concentration of analyte in the sample.
# [2] = system: experimental autoimmune encephalomyelitis induced by myelin oligodendrocyte glycoprotein (MOG); assay: MOG-induced experimental autoimmune encephalomyelitis (EAE), paralysis scores; assay type: in vivo, mice; details: variant of Example 2
# Method: A variant of the animal model of Example 2 was tested. In particular, experimental autoimmune encephalomyelitis was induced by subcutaneous injection of myelin oligodendrocyte glycoprotein (MOG) instead of PLP.
# PLP-induced EAE = assay: PLP-induced experimental autoimmune encephalomyelitis (EAE), clinical grading; assay type: in vivo, Female SJL mice
smiles,measurement,setting,value
O=C(NO)c1ccc(CNC(=O)c2[nH]c(-c3ccc(O)cc3)cc2-c2ccoc2)cc1 [QTX125],transaminase (GPT) plasma level (light emission),[1]; 25 mg/Kg i.p. 24 and 1 hour before ConA (20 mg/Kg i.v.),606 U/L
same,transaminase (GPT) plasma level (light emission),[1]; 50 mg/Kg i.p. 24 and 1 hour before ConA (20 mg/Kg i.v.),543 U/L
same,paralysis scores (EAE clinical grading),[2],reduced paralysis scores
same,EAE clinical grading (mouse condition) with respect to vehicle,"PLP-induced EAE; 60 mg/Kg i.p. daily for 35 consecutive days, day 7 to day 42 post immunization",substantial improvement of mouse condition
same,EAE clinical grading (mouse condition) with respect to dexamethasone,"PLP-induced EAE; 60 mg/Kg i.p. daily vs dexamethasone 0.3 mg/Kg, greater part of the treatment, particularly at the end",even ameliorated with respect to dexamethasone
